Source: PubChem BioAssay AID1845201 (Molecular Pharmacology Branch, DTP, NCI, 2023)
Where “and” joins values, the source holds several entries; their conditions need not be identical. Equal values may be shown once.

Tested on: COR L88 complex tumor spheroid viability
Assay: Anticancer human tumor COR L88 cell line growth inhibition;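 note: compound exposure lasted 7 days before viability readout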;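 for viability, T/C: percent of DMSO vehicle-treated spheroids = 100%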
Conditions: for viability, T/C: stronger effect = lower value
In short: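 Complex tumor spheroids combined malignant cells with endothelial cells and mesenchymal stem cells. DNA-damaging drugs and DNA repair inhibitors were tested alone and in combination, at half-log dilutions down from clinical Cmax (top 10 microM if Cmax unknown), 0.25% DMSO final.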

[1] = curve of first compound, second compound 30 pM
[2] = curve of first compound, second compound 94.9 pM
[3] = curve of first compound, second compound 0.0003 µM
[4] = curve of first compound, second compound 0.000949 µM
[5] = curve of first compound, second compound 0.003 µM
[6] = second compound 30 pM, first compound 0.0316 µM
[7] = second compound 30 pM, first compound 0.1 µM
[8] = second compound 30 pM, first compound 0.316 µM
[9] = second compound 30 pM, first compound 1 µM
[10] = second compound 30 pM, first compound 3.16 µM
[11] = second compound 30 pM, first compound 10 µM
[12] = second compound 94.9 pM, first compound 0.0316 µM
[13] = second compound 94.9 pM, first compound 0.1 µM
[14] = second compound 94.9 pM, first compound 0.316 µM
[15] = second compound 94.9 pM, first compound 1 µM
[16] = second compound 94.9 pM, first compound 3.16 µM
[17] = second compound 94.9 pM, first compound 10 µM
[18] = second compound 0.0003 µM, first compound 0.0316 µM
[19] = second compound 0.0003 µM, first compound 0.1 µM
[20] = second compound 0.0003 µM, first compound 0.316 µM
[21] = second compound 0.0003 µM, first compound 1 µM
[22] = second compound 0.0003 µM, first compound 3.16 µM
[23] = second compound 0.0003 µM, first compound 10 µM
[24] = second compound 0.000949 µM, first compound 0.0316 µM
[25] = second compound 0.000949 µM, first compound 0.1 µM
[26] = second compound 0.000949 µM, first compound 0.316 µM
[27] = second compound 0.000949 µM, first compound 1 µM
[28] = second compound 0.000949 µM, first compound 3.16 µM
[29] = second compound 0.000949 µM, first compound 10 µM
[30] = second compound 0.003 µM, first compound 0.0316 µM
[31] = second compound 0.003 µM, first compound 0.1 µM
[32] = second compound 0.003 µM, first compound 0.316 µM
[33] = second compound 0.003 µM, first compound 1 µM
[34] = second compound 0.003 µM, first compound 3.16 µM
[35] = second compound 0.003 µM, first compound 10 µM
[36] = compound alone, run of 10/17/2019

Cc1sc2c(c1C)C(c1ccc(Cl)cc1)=NC(CC(=O)Nc1ccc(O)cc1)c1nnc(C)n1-2 (stereo not drawn) + Cn1nnc2c(C(N)=O)ncn2c1=O
IC50 (curve of first compound, second compound 1 µM): 0.499 µM
IC50 (curve of first compound, second compound 3.16 µM): 0.624 µM
IC50 (curve of first compound, second compound 10 µM): 0.61 µM
IC50 (curve of first compound, second compound 31.6 µM): 0.785 µM
IC50 (curve of first compound, second compound 100 µM): 0.88 µM
viability, T/C (second compound 1 µM, first compound 0.00949 µM): 86.5%
viability, T/C (second compound 1 µM, first compound 0.03 µM): 94%
viability, T/C (second compound 1 µM, first compound 0.0949 µM): 97.9%
viability, T/C (second compound 1 µM, first compound 0.3 µM): 63.2%
viability, T/C (second compound 1 µM, first compound 0.949 µM): 34.8%
viability, T/C (second compound 1 µM, first compound 3 µM): 22.4%
viability, T/C (second compound 3.16 µM, first compound 0.00949 µM): 98.8%
viability, T/C (second compound 3.16 µM, first compound 0.03 µM): 96.5%
viability, T/C (second compound 3.16 µM, first compound 0.0949 µM): 100%
viability, T/C (second compound 3.16 µM, first compound 0.3 µM): 70.6%
viability, T/C (second compound 3.16 µM, first compound 0.949 µM): 38.6%
viability, T/C (second compound 3.16 µM, first compound 3 µM): 21.5%
viability, T/C (second compound 10 µM, first compound 0.00949 µM): 88.1%
viability, T/C (second compound 10 µM, first compound 0.03 µM): 94.1%
viability, T/C (second compound 10 µM, first compound 0.0949 µM): 103%
viability, T/C (second compound 10 µM, first compound 0.3 µM): 64.7%
viability, T/C (second compound 10 µM, first compound 0.949 µM): 41.2%
viability, T/C (second compound 10 µM, first compound 3 µM): 18.8%
viability, T/C (second compound 31.6 µM, first compound 0.00949 µM): 89%
viability, T/C (second compound 31.6 µM, first compound 0.03 µM): 101%
viability, T/C (second compound 31.6 µM, first compound 0.0949 µM): 104%
viability, T/C (second compound 31.6 µM, first compound 0.3 µM): 87.7%
viability, T/C (second compound 31.6 µM, first compound 0.949 µM): 42.7%
viability, T/C (second compound 31.6 µM, first compound 3 µM): 23.8%
viability, T/C (second compound 100 µM, first compound 0.00949 µM): 78.4%
viability, T/C (second compound 100 µM, first compound 0.03 µM): 85.4%
viability, T/C (second compound 100 µM, first compound 0.0949 µM): 92.2%
viability, T/C (second compound 100 µM, first compound 0.3 µM): 88.1%
viability, T/C (second compound 100 µM, first compound 0.949 µM): 47.4%
viability, T/C (second compound 100 µM, first compound 3 µM): 28.2%

COc1cc(C)[nH]c(=O)c1CN1CCc2c(Cl)cc(C(OC)C3COC3)c(Cl)c2C1=O (stereo not drawn)
viability, T/C (compound 0.0316 µM): 109% and 91.5% and 89.8%
viability, T/C (compound 0.1 µM): 100% and 89.6% and 97%
viability, T/C (compound 0.316 µM): 95.5% and 80.1% and 98.1%
viability, T/C (compound 1 µM): 89.2% and 76.7% and 91.4%
viability, T/C (compound 3.16 µM): 96.1% and 84.8% and 85.8%
viability, T/C (compound 10 µM): 92.2% and 75.5% and 90.1%
IC50 (curve of compound): > 10 µM

CC1COCCN1c1cc(-c2ccnn2C)c2ccnc(-c3ccn[nH]3)c2n1 (stereo not drawn) + COc1cc2c(cc1O)CCNC21CSC2c3c(OC(C)=O)c(C)c4c(c3C(COC1=O)N1C(O)C3Cc5cc(C)c(OC)c(O)c5C(C21)N3C)OCO4
IC50 [1]: 0.111 µM
IC50 [2]: < 0.0316 µM
IC50 [3]: < 0.0316 µM
IC50 [4]: < 0.0316 µM
IC50 [5]: < 0.0316 µM
viability, T/C [6]: 72.1%
viability, T/C [7]: 49.5%
viability, T/C [8]: 36.7%
viability, T/C [9]: 20.3%
viability, T/C [10]: 7.72%
viability, T/C [11]: 3.13%
viability, T/C [12]: 41.8%
viability, T/C [13]: 36.9%
viability, T/C [14]: 25.6%
viability, T/C [15]: 17.2%
viability, T/C [16]: 6.6%
viability, T/C [17]: 2.46%
viability, T/C [18]: 28.6%
viability, T/C [19]: 25.4%
viability, T/C [20]: 19.9%
viability, T/C [21]: 11%
viability, T/C [22]: 3.54%
viability, T/C [23]: 1.58%
viability, T/C [24]: 6.86%
viability, T/C [25]: 7.07%
viability, T/C [26]: 3.61%
viability, T/C [27]: 2.02%
viability, T/C [28]: 0.7%
viability, T/C [29]: 0.25%
viability, T/C [30]: 0.56%
viability, T/C [31]: 0.53%
viability, T/C [32]: 0.53%
viability, T/C [33]: 0.41%
viability, T/C [34]: 0.58%
viability, T/C [35]: 0.58%

CC[C@@]1(O)C(=O)OCc2c1cc1n(c2=O)Cc2cc3c(CN(C)C)c(O)ccc3nc2-1
viability, T/C (compound 0.00949 µM): 76% [middle of 10 runs]
viability, T/C (compound 0.03 µM): 55% [middle of 10 runs]
viability, T/C (compound 0.0949 µM): 52% [middle of 10 runs]
viability, T/C (compound 0.3 µM): 48.1% [middle of 10 runs]
IC50 [36]: 45.7 nM [middle of 5 runs]
IC50 (compound alone, run of 10/25/2019): > 0.3 µM and 0.163 µM and 0.172 µM

Cn1ncnc1[C@H]1c2n[nH]c(=O)c3cc(F)cc(c23)N[C@@H]1c1ccc(F)cc1
viability, T/C (compound 0.00949 µM): 88.5% and 92.9% and 87.1%
viability, T/C (compound 0.03 µM): 79.6% and 66.2% and 79.5%
viability, T/C (compound 0.0949 µM): 66.9% and 62.7% and 56%
viability, T/C (compound 0.3 µM): 59.6% and 54.9% and 49.2%
viability, T/C (compound 0.949 µM): 43.3% and 45% and 39.5%
viability, T/C (compound 3 µM): 43.6% and 37.6% and 40.6%
IC50 (curve of compound): 0.665 µM and 0.353 µM and 0.293 µM

CNCc1ccc(-c2cc(-c3nc(-c4ccc(S(=O)(=O)C(C)C)cc4)cnc3N)on2)cc1
viability, T/C (compound 0.00949 µM): 98.5% and 103% and 105%
viability, T/C (compound 0.03 µM): 111% and 118% and 104%
viability, T/C (compound 0.0949 µM): 109% and 107% and 101%
viability, T/C (compound 0.3 µM): 87% and 84.6% and 56.4%
viability, T/C (compound 0.949 µM): 40.9% and 47.2% and 22.6%
viability, T/C (compound 3 µM): 11.8% and 11.3% and 5.68%
IC50 (curve of compound): 0.753 µM and 0.848 µM and 0.391 µM

Cn1nnc2c(C(N)=O)ncn2c1=O
viability, T/C (compound 1 µM): 96.2% [middle of 10 runs]
viability, T/C (compound 3.16 µM): 96.8% [middle of 10 runs]
viability, T/C (compound 10 µM): 95% [middle of 10 runs]
viability, T/C (compound 31.6 µM): 84.1% [middle of 10 runs]
viability, T/C (compound 100 µM): 70.6% [middle of 10 runs]
IC50 [36]: > 100 µM

COc1cc(C)[nH]c(=O)c1CN1CCc2c(Cl)cc(C(OC)C3COC3)c(Cl)c2C1=O (stereo not drawn) + COc1cc2c(cc1O)CCNC21CSC2c3c(OC(C)=O)c(C)c4c(c3C(COC1=O)N1C(O)C3Cc5cc(C)c(OC)c(O)c5C(C21)N3C)OCO4
IC50 [1]: > 10 µM
IC50 [2]: > 10 µM
IC50 [3]: < 0.0316 µM
IC50 [4]: < 0.0316 µM
IC50 [5]: < 0.0316 µM
viability, T/C [6]: 109%
viability, T/C [7]: 98.7%
viability, T/C [8]: 96.8%
viability, T/C [9]: 91.4%
viability, T/C [10]: 86.7%
viability, T/C [11]: 83.2%
viability, T/C [12]: 99.4%
viability, T/C [13]: 84.2%
viability, T/C [14]: 82.2%
viability, T/C [15]: 86.2%
viability, T/C [16]: 80.9%
viability, T/C [17]: 80.9%
viability, T/C [18]: 49.3%
viability, T/C [19]: 41.2%
viability, T/C [20]: 38%
viability, T/C [21]: 36.3%
viability, T/C [22]: 34.2%
viability, T/C [23]: 31.3%
viability, T/C [24]: 39.6%
viability, T/C [25]: 47.4%
viability, T/C [26]: 44.6%
viability, T/C [27]: 37.7%
viability, T/C [28]: 34.1%
viability, T/C [29]: 18.3%
viability, T/C [30]: 1.16%
viability, T/C [31]: 1.08%
viability, T/C [32]: 0.9%
viability, T/C [33]: 1.24%
viability, T/C [34]: 1.05%
viability, T/C [35]: 1.71%
